Test results reported in patent publication US20190169564A1, “METHODS OF CULTURING MICROORGANISMS IN NON-AXENIC MIXOTROPHIC CONDITIONS” (HELIAE DEVELOPMENT, LLC, priority 2012, published 2019).

Key:
[1] = system: Chlorella; experiment: Mixotrophic Chlorella culture in bubbled column reactor with pH-auxostat, comparison of organic carbon sources
[2] = system: E. coli
Description: 200 ml of bacteria inoculum from a bacteria contaminated photobioreactor was added to 200 ml of BG-11 culture medium. The solution was split in half, with the first solution receiving 6.84 g of glucose and the second solution receiving 5 g of sodium acetate. The pH and optical density of both solutions was taken. The two solutions were each split into three groups of three separate 100 ml volumes, for a control, 10 mMH2O2, and 20 mMH2O2 treatments. Each volume had 2.092 g of MOPS buffer (Sigma Chemical St. Louis, Mo.), and then placed in an incubator set at 27° C., 96 rpm, and 100 μmol/m^2 s of LED light. The volumes were incubated overnight, then brought to a pH of 7.5 using 10 M NaOH and optical density was measured. The treatments of 10 mM H2O2 and 20 mM H2O2 were then added and incubated for 24 h. Optical density and pH were then measured, and methionine was added to one volume of each treatment. Optical density and pH were measured again on the third day and the sixth day before microscope analysis on the sixth day.
The bacteria cultures in glucose and sodium acetate were treated with 0 mM H2O2 (control), 1 mM H2O2, 2.5 mM H2O2, and 5 mM H2O2.

[3] = system: contaminating bacteria; experiment: Treatment of bacterial contamination in outdoor raceway pond mixotrophic Chlorella culture (flow cytometry); type: cell-based
Description: Contamination observation (400×, 1000× oil immersion-phase contrast micrograph and cell cytometry with bacterial dying) was performed every 2 days, including a measurement of bacterial contamination by flow cytometry. For bacterial contamination measurement, to each 1 ml sample, 1 μl BacLight™ Green bacterial stain (Invitrogen, Eugene, Oreg., USA) as added, and samples were incubated at room temperature in the dark for 30 to 60 minutes. After incubation, samples were analyzed on a BD FACSAria™ (BD Biosciences, San Jose, Calif., USA) and populations of bacteria and algae were gated based on BacLight™ fluorescence and chlorophyll autofluoresence.
Chlorella sp. SNL333 was grown in a mixotrophic system in the pond raceway systems described above in Example 4. The area of the raceway photobioreactor was 5.6 m^2 with an operating volume of 568 L at a depth of […]. One unit was mixed with a pump (Reactor 1), and the other via a paddle wheel (Reactor 2). Air was delivered to the paddle wheel system via an air stone. Air was delivered to the pumped reactor via a venturi injection system. […] The nitrate level in the modified BG-11 recipe consisted of 400 mg/L, and was determined via the nitrate consumption rates from previous trials. […]
Referring to FIG. 28, the percentage of bacteria to Chlorella in the mixotrophic cultures was quantified using the procedure discussed in the previous examples. […]

[4] = system: Chlorella sp. SNL333; experiment: Yield of raceway pond mixotrophic Chlorella culture after contamination treatment; type: cell-based
Description: Chlorella sp. SNL333 was grown in a mixotrophic system in the pond raceway systems described above in Example 4. The area of the raceway photobioreactor was 5.6 m^2 with an operating volume of 568 L at a depth of 15 cm. One unit was mixed with a pump (Reactor 1), and the other via a paddle wheel (Reactor 2). Air was delivered to the paddle wheel system via an air stone. Air was delivered to the pumped reactor via a venturi injection system. Eductors were used in the pumped reactor to increase water velocity and enhance oxygen transfer of the liquid medium. […] The nitrate level in the modified BG-11 recipe consisted of 400 mg/L, and was determined via the nitrate consumption rates from previous trials.
Nitrate levels were adjusted towards the end of the trial to maintain residual nitrate in the system (400 mg/L). Harvests occurred daily throughout the trials. Harvest consisted of 50% of the culture volume daily, with an 80% harvest occurring on day 7. The total trial lasted 12 days for Reactor 1 and 10 days for Reactor 2.
Treatments to control the bacterial population occurred at the time indicated by the vertical dashed line. Reactor 1 received an ozone treatment, and Reactor 2 received an antibiotic treatment. At 190 hours the make-up water for refilling the system was sterilized by chlorination prior to being added to the culture. […]

Compound: CC(=O)O [Acetic Acid, acetic acid]
- Mixotrophic Chlorella Daily Productivity ([1]; Day 1, organic carbon source fed by pH-auxostat, 25° C., 24 hour photoperiod): 1.04 g/L day
- Mixotrophic Chlorella Daily Productivity ([1]; Day 2): 1.21 g/L day
- Mixotrophic Chlorella Daily Productivity ([1]; Day 3): 1.27 g/L day
- Mixotrophic Chlorella Daily Productivity ([1]; Day 4): 1.97 g/L day
- Mixotrophic Chlorella Daily Productivity ([1]; Day 5): 1.40 g/L day

Compound: OO [H2O2, hydrogen peroxide]
- effect on growth of bacteria cultures ([2]; 10 mM and 20 mM H2O2, glucose and acetate mediums, 20 mM greater effect than 10 mM): negatively affected the growth of bacteria cultures in both glucose and acetate mediums
- inhibitory effect on growth of the bacteria versus H2O2 concentration ([2]; 1, 2.5 and 5 mM H2O2, one time treatment, glucose and sodium acetate cultures, growth eventually recovers): inhibitory effect on the growth of the bacteria increased

Compound: O=[O+][O-] [ozone]
- percentage of bacteria to Chlorella after treatment ([3]; after the treatment (ozone 0.10-0.20 mg/L for 17 h; antibiotic mix of Table 4)): 1.4%
- percentage of bacteria to Chlorella before treatment ([3]; before the treatment): 6.5%
- average yield for the three days after the treatment [4]: 105 g/m^2 d
